Reference: patent US20090111997A1, “Method of Generating Amorphous Solid for Water-Insoluble Pharmaceuticals” (priority 2005, published 2009)

Procedure: The term “water insoluble pharmaceutical” means a pharmaceutical active ingredient that is insoluble or nearly insoluble in water with a dose number greater than 1. The dose number is defined as follows:
Dose number=theoretical dose in mg/water solubility×250 ml.
For example, if the theoretical dose of the drug is 20 mg per dose. […] Another example of a water insoluble pharmaceutical includes the compound of Formula I

## CC[C@H](C)C(=O)O[C@H]1C[C@@H](C)C=C2C=C[C@H](C)[C@H](CC[C@@H]3C[C@@H](O)CC(=O)O3)[C@H]21 [lovastatin]
  dose number (theoretical dose in mg/water solubility×250 ml): > 8
